Reference: patent publication US20090118336A1, “PYRAZOLE DERIVATIVES AND THEIR USE AS PI3K INHIBITORS” (priority 2006, published 2009)

What was measured:
p110α Type Ia human PI3K = target: T1, p110α Type Ia human PI3K (Homo sapiens, UniProt P42336); test: In vitro PI3K enzyme assay (AlphaScreen), Test (a); format: biochemical; conditions: recombinant enzyme, PI(4,5)P2 substrate, ATP 4 μM, read-out: IC50 versus p110α Type Ia human PI3K
T1 construct: full length DNA of each of the p110α, p110β and p110δ Type Ia human PI3K p110 isoforms; 6-His; made in house
T1 sequence (P42336 whole entry, canonical isoform): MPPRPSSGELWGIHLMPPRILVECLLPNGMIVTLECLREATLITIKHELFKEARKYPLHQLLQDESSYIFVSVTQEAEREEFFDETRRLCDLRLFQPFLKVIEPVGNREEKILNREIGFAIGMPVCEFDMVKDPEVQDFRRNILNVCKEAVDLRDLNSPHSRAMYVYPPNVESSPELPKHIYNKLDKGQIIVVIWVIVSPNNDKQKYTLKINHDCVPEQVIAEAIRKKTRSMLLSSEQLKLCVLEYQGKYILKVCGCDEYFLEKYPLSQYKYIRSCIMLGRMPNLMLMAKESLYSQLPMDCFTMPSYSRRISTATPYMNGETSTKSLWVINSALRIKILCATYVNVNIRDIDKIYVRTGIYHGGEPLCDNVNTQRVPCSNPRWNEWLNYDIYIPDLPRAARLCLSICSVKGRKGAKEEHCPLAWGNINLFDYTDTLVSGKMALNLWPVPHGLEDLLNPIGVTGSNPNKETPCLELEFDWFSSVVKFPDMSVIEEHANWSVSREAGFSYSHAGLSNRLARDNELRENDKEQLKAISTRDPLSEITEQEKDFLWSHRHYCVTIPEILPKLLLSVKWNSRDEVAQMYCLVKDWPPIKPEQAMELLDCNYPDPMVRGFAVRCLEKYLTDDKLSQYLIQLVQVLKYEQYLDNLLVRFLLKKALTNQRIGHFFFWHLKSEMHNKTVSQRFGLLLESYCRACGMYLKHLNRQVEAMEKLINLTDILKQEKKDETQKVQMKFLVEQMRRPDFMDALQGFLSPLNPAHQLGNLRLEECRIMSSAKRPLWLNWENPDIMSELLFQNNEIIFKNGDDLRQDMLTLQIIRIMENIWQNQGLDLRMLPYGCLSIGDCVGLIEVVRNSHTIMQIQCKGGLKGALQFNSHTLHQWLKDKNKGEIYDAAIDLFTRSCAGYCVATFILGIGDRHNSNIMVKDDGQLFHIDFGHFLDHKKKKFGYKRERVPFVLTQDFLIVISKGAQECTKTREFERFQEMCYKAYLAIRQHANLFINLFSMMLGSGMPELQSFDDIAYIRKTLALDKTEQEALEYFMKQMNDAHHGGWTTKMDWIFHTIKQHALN
T1 sequence (P27986 whole entry partner, canonical isoform): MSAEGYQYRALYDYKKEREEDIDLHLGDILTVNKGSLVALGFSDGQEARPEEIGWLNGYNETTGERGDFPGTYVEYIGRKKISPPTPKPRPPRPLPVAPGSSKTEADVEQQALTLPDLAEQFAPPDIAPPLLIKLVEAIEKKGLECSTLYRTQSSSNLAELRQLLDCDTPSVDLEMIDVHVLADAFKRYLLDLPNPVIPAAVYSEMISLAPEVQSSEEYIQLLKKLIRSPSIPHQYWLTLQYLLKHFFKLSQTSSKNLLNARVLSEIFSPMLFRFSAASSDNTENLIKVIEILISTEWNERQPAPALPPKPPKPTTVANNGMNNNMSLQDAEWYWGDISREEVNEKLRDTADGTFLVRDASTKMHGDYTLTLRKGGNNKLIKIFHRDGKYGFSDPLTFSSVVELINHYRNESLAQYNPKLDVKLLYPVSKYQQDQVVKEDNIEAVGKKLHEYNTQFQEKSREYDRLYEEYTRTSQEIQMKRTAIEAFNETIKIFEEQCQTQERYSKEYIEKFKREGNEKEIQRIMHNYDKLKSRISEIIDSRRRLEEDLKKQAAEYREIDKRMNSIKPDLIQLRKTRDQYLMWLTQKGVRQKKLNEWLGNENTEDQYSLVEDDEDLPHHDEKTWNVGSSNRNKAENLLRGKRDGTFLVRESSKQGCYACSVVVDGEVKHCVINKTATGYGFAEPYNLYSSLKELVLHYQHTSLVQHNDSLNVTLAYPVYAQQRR
Text: (a) In Vitro PI3K Enzyme Assay
The assay used AlphaScreen technology (Gray et al., Analytical Biochemistry, 2003, 313: 234-245) to determine the ability of test compounds to inhibit phosphorylation by recombinant Type I PI3K enzymes of the lipid PI(4,5)P2.
DNA fragments encoding human PI3K catalytic and regulatory subunits were isolated from cDNA libraries using standard molecular biology and PCR cloning techniques. The selected DNA fragments were used to generate baculovirus expression vectors. In particular, full length DNA of each of the p110α, p110β and p110δ Type Ia human PI3K p110 isoforms (EMBL Accession Nos. HSU79143, S67334, Y10055 for p110α, p110β and p110δ respectively) were sub-cloned into a pDEST10 vector (Invitrogen Limited, Fountain Drive, Paisley, UK). The vector is a Gateway-adapted version of Fastbac1 containing a 6-His epitope tag. […]
Biotinylated-DiC8-PI(3,4,5)P3 ([…]; Cell Signals Inc., Catalogue No. 107), recombinant purified GST-Grp1 PH protein (2.5 nM) and AlphaScreen Anti-GST donor and acceptor beads (100 ng; Packard Bioscience Limited, Station Road, Pangbourne, Berkshire, UK, Catalogue No. 6760603M) were added and the assay plates were left for about 5 to 20 hours at room temperature in the dark. The resultant signals arising from laser light excitation at 680 nm were read using a Packard AlphaQuest instrument. […]

[1] = target: mTOR PI kinase-related kinase (Homo sapiens, UniProt P42345); test: In vitro mTOR PI kinase-related kinase assay (AlphaScreen), Test (b); format: biochemical; conditions: recombinant mTOR (1362-2549), ATP 20 μM, read-out: IC50 versus mTOR PI kinase-related kinase
mTOR PI kinase-related kinase, sequence (P42345 1362-2549): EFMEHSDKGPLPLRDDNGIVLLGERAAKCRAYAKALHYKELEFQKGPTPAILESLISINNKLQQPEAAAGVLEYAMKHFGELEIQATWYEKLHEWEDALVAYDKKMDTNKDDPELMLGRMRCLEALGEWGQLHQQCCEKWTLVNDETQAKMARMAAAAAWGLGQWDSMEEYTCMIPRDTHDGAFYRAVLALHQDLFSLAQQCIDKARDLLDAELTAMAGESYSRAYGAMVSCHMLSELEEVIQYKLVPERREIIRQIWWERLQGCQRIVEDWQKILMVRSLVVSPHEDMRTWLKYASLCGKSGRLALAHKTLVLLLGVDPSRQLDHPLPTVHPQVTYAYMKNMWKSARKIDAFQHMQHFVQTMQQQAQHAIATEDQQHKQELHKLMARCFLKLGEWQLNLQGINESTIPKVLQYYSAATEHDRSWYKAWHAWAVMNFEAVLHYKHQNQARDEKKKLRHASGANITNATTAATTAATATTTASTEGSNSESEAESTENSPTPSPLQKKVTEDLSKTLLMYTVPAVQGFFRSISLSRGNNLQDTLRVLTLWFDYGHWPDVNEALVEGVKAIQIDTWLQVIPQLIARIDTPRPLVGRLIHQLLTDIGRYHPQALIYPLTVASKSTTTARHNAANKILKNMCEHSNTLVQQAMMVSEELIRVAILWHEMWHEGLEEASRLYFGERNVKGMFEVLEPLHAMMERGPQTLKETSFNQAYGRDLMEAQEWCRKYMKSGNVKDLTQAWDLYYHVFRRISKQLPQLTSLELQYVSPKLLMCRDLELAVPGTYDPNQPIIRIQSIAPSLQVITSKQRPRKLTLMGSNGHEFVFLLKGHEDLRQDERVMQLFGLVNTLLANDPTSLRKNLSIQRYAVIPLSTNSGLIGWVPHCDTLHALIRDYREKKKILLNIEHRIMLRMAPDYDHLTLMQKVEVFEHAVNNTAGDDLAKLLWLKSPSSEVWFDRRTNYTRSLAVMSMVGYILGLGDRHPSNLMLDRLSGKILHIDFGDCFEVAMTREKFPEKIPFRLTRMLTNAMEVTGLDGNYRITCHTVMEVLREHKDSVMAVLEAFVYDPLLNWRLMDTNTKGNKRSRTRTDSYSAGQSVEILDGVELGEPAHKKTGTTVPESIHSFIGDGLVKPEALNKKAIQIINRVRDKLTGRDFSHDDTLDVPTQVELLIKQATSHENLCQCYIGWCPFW
Experimental: (b) In Vitro mTOR PI Kinase-Related Kinase Assay
The assay used AlphaScreen technology (Gray et al., Analytical Biochemistry, 2003, 313: 234-245) to determine the ability of test compounds to inhibit phosphorylation by recombinant mTOR. […]
Each reaction was stopped by the addition of 10 μl of a mixture of EDTA (50 mM), bovine serum albumin (BSA; 0.5 mg/ml) and Tris-HCl pH7.4 buffer (50 mM) containing p70 S6 Kinase (T389) 1A5 Monoclonal Antibody (Cell Signalling Technology, Catalogue No. 9206B) and AlphaScreen Streptavidin donor and Protein A acceptor beads (200 ng; Perkin Elmer, Catalogue No. 6760002B and 6760137R respectively) were added and the assay plates were left for about 20 hours at room temperature in the dark. The resultant signals arising from laser light excitation at 680 nm were read using a Packard Envision instrument.
Phosphorylated biotinylated peptide is formed in situ as a result of mTOR mediated phosphorylation. […] Upon laser light excitation at 680 nm, the donor bead: acceptor bead complex produces a signal that can be measured. […]
mTOR enzyme inhibition for a given test compound was expressed as an IC50 value.

SMILES | IC50 (p110α Type Ia human PI3K) | IC50 [1]
CC(=O)Nc1cc(-c2cncc(NS(C)(=O)=O)c2)n(C)n1 [Example 1, N-[5-(5-methanesulphonamidopyridin-3-yl)-1-methyl-1H-pyrazol-3-yl]acetamide] | ~5 µM | ~40 µM
CC(=O)Nc1cc(-c2cncc(NS(=O)(=O)c3c(C)nn(C)c3Cl)c2)n(C)n1 [Example 3, N-{5-[5-(5-chloro-1,3-dimethyl-1H-pyrazol-4-ylsulphonamido)pyridin-3-yl]-1-methyl-1H-pyrazol-3-yl}acetamide] | ~0.5 µM | ~2 µM
